What was measured:
[1] = molecular target: T1, recombinant human HSP90beta (Homo sapiens, UniProt P08238); assay: Competition ELISA: HSP90 binding under influence of crossbeta binding compounds and geldanamycin; conditions: 20 μg/ml HSP90, geldanamycin 10 μM; for Binding of HSP90 to coated Aβ25-35 under influence of compound: sRAGE 79 μg/ml, HSA 10 μM
T1 construct: purchased Dr. S. Rüdiger, Cellular Protein Chemistry, Utrecht University
Method: Binding of chaperones to immobilized (misfolded) protein ligands was determined using an enzyme linked immuno sorbent assay (ELISA) approach. For this purpose 50 μl/well of potential ligands at indicated concentrations or coat buffer only for control and background measurement purposes, were coated overnight at 4° C. or coated for 1 h at room temperature, with motion, in 50 mM NaHCO3 pH 9.6 (coat buffer). In general, ligands were coated at 5 μg/ml, unless stated otherwise. […] Native haemoglobin (Sigma-Aldrich, H7379), albumin, IgIV Gammagard and ovalbumin controls were prepared from lyophilized stocks. The controls were prepared by dissolving lyophilized proteins at 1 mg/ml in PBS upon resuspending by pipetting, followed by a 30 minutes period at the roller device, at room temperature. The protein solutions were centrifuged for 10 minutes at 16,000*g and diluted in coat buffer. […] Plates were washed three times and incubated in triplicate with indicated chaperone dilution series, at 50 μl/well, for 1 h at room temperature, with constant motion. For HSP90, 5 mM DTT is incorporated in the binding buffer (PBS/0.1% Tween20) to avoid unwanted disulfide bond formation of the HSP90. […] After four wash cycles, secondary antibodies were added to the wells when required, 50 μl/well, for 45′ at room temperature, with motion. RAMPO and SWARPO were used at 3000 times dilution. […] In a second experiment with more immobilized misfolded proteins and controls, the detection of bound HSP90 with the mix of two anti-HSP90 antibodies was achieved by mixing 1:1500 SWARPO with 1:3000 RAMPO. After 5 washes with wash buffer followed by two washes with PBS, binding of antibodies was assessed. […] The reaction was stopped after 5 minutes with 1% H2SO4 in H2O. Plates were read at 450 nm. Triplicates were averaged and standard deviations calculated. Background signals obtained with buffer-coated wells were subtracted (binding of primary antibody to empty wells), as well as background signals obtained with ligand-coated wells in which the chaperones were omitted (binding of primary and secondary antibody to coated ligands). Subsequently, sub-optimal concentrations of chaperones for binding to misfolded protein ligands are determined, and these concentrations are used for inhibition studies.

[2] = molecular target: T2, Escherichia coli HSP70 family member DnaK (Escherichia coli, UniProt P0A6Y8); assay: Competition ELISA: DnaK binding under influence of ThT and Congo red; conditions: 20 μg/ml DnaK; 1 mM dye
T2 construct: purchased Stressgen (Ann Arbor, Mich., USA) SPP-630
Method: Binding of chaperones to immobilized (misfolded) protein ligands was determined using an enzyme linked immuno sorbent assay (ELISA) approach. For this purpose 50 μl/well of potential ligands at indicated concentrations or coat buffer only for control and background measurement purposes, were coated overnight at 4° C. or coated for 1 h at room temperature, with motion, in 50 mM NaHCO3 pH 9.6 (coat buffer). In general, ligands were coated at 5 μg/ml, unless stated otherwise. For example, BiP binding peptides 6BB# and oxLDL were coated at 50 μg/ml. Native haemoglobin (Sigma-Aldrich, H7379), albumin, IgIV Gammagard and ovalbumin controls were prepared from lyophilized stocks. The controls were prepared by dissolving lyophilized proteins at 1 mg/ml in PBS upon resuspending by pipetting, followed by a 30 minutes period at the roller device, at room temperature. The protein solutions were centrifuged for 10 minutes at 16,000*g and diluted in coat buffer. After coating the plates were washed at least three times with 50 mM Tris-HCl pH 7.3, 150 mM NaCl, 0.1% v/v Tween20, and blocked with Blocking reagent (Roche Diagnostics, Almere, The Netherlands; 11112589001), for 1 h at room temperature, with motion. Plates were washed three times and incubated in triplicate with indicated chaperone dilution series, at 50 μl/well, for 1 h at room temperature, with constant motion. For HSP90, 5 mM DTT is incorporated in the binding buffer (PBS/0.1% Tween20) to avoid unwanted disulfide bond formation of the HSP90. Plates were washed three times and incubated with anti-FLAG antibody (mouse antibody, M2, peroxidase conjugate; Sigma, A-8592) for BiP-FLAG-His, anti-His-tag antibody (Mouse Monoclonal Antibody, Cat. No. 70796, Novagen [0.2 mg/ml]) for HSP60, a 1:1 mix of 500-fold diluted anti-HSP90beta antibodies (Stressgen, SPA-643 [mouse monoclonal IgM], SPA-646 [rabbit polyclonal]) for HSP90 and an anti-DnaK antibody (Stressgen, 023SPA-880D [mouse monoclonal antibody]) for DnaK. After four wash cycles, secondary antibodies were added to the wells when required, 50 μl/well, for 45′ at room temperature, with motion. RAMPO and SWARPO were used at 3000 times dilution. […] In a second experiment with more immobilized misfolded proteins and controls, the detection of bound HSP90 with the mix of two anti-HSP90 antibodies was achieved by mixing 1:1500 SWARPO with 1:3000 RAMPO. After 5 washes with wash buffer followed by two washes with PBS, binding of antibodies was assessed. […] Plates were read at 450 nm. Triplicates were averaged and standard deviations calculated. […] Subsequently, sub-optimal concentrations of chaperones for binding to misfolded protein ligands are determined, and these concentrations are used for inhibition studies. […]

T1 sequence (P08238 whole entry): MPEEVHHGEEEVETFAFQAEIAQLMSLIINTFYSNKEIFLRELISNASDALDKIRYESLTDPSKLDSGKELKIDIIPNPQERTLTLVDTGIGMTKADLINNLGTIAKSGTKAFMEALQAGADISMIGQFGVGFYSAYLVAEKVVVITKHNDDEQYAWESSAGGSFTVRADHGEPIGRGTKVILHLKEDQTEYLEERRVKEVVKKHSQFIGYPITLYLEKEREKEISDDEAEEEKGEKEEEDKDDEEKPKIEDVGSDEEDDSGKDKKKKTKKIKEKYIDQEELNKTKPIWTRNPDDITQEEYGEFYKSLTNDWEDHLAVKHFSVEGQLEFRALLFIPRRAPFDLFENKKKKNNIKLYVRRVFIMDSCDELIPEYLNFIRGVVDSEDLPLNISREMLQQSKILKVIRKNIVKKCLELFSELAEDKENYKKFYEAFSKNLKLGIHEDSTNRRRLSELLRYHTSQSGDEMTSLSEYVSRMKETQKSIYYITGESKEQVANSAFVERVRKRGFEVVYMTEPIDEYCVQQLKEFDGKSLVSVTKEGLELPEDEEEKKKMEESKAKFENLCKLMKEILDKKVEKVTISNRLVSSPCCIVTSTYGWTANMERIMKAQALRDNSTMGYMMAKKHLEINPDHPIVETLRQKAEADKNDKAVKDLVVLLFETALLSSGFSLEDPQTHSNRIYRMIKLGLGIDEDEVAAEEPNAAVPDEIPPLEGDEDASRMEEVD
T2 sequence (P0A6Y8 whole entry): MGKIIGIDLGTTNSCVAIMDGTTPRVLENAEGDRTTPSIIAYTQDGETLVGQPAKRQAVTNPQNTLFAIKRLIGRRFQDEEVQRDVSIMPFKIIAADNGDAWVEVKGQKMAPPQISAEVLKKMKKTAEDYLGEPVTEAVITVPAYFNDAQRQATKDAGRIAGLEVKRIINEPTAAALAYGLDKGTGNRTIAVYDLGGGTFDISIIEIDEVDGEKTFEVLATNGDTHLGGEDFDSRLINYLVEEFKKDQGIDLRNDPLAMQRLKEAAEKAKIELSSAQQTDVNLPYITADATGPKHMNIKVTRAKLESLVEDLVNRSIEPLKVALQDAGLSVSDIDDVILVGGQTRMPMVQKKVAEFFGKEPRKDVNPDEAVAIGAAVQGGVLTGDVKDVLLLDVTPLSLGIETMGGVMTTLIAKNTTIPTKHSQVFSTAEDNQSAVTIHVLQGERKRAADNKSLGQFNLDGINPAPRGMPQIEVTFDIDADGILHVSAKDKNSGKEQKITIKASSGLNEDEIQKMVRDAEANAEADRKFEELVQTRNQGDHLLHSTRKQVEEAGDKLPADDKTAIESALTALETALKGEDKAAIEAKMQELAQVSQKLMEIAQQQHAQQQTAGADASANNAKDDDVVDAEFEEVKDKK

Row | SMILES | Binding of HSP90 to coated HbAGE under influence of compound [1] | Binding of HSP90 to coated Aβ25-35 under influence of compound [1] | Binding of DnaK to immobilized HbAGE under influence of compound [2] | Binding of DnaK to immobilized dIgIV-86 under influence of compound [2]
1 | Nc1c(/N=N/c2ccc(-c3ccc(/N=N/c4cc(S(=O)(=O)O)c5ccccc5c4N)cc3)cc2)cc(S(=O)(=O)O)c2ccccc12 [Congo red] | inhibited | stimulatory activity | inhibit | inhibit
2 | Cc1ccc2c(c1)sc(-c1ccc(N(C)C)cc1)[n+]2C.[Cl-] [ThT, Thioflavin T] | had no influence | stimulatory activity | inhibit | inhibit
